Measurements as given in patent publication US20070082883A1, “HIV protease inhibitors” (THE BOARD OF TRUSTEES OF THE UNIVERSITY OF ILLINOIS, priority 2002, published 2007).
Non-standard residues stand in square brackets, D forms with d. Residues, ends and D or L forms follow the SMILES beside them. Phe(4-NO2) = N[C@@H](Cc1ccc([N+](=O)[O-])cc1)C(=O)O; Nle = CCCC[C@H](N)C(=O)O; 2Abz = Nc1ccccc1C(=O)O

Key:
[1] = molecular target: T1, HIV-1 protease (Human immunodeficiency virus type 1 group M subtype B, UniProt P04585); test: Kinetic measurements of the cleavage of anthranilyl fluorogenic substrate by HIV-1 protease; type: biochemical; settings: purified refolded HIV-1 protease; read-out: Michaelis constant for the substrate Km
T1 construct: made in house; host or cells: E. coli BL21 (dE3)pLysS, pET30a vector
Text: The HIV-1 protease gene was subcloned into the pET30a vector (Novagen) and then transformed into BL21 (dE3)pLysS cells for protein expression. Protein expression and purification were followed according to Tang's procedure (Hong et al., Biochemistry, 1996, 35, 10627-10633). […] The inclusion body containing some bacterial proteins was thoroughly washed by using TRITON X-100, solubilized in BM urea and passed through the Q-sepharose column to remove the bacterial proteins which interfered with subsequent refolding steps. HIV-1 protease was refolded from the urea to an active form by dialysis. As a final step, gel filtration chromatography was used to remove impurities after refolding. Activities of purified HIV-1 protease were examined using a fluorogenic substrate, 2-aminobenzoyl-Thr-Ile-Nle-Phe(pNO2)-Gln-Arg-NH2 (Novabiochem). […] Using the first rate equation, kcat is calculated. In the condition of So<<Km, v=Eo(kcat/Km)So, where Eo is the total enzyme concentration, and So is the substrate concentrate.

[2] = molecular target: T1, HIV-1 protease; test: HIV-1 Protease Inhibition Assay; type: biochemical; settings: fluorogenic substrate assay
Outline: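 Recombinant HIV-1 protease expressed in E. coli BL21(DE3)pLysS, refolded from urea and purified. Activity followed with fluorogenic substrate 2-aminobenzoyl-Thr-Ile-Nle-Phe(pNO2)-Gln-Arg-NH2 under So<<Km.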

Row | Compound | Km [1] [µM] | melting point [°C] | IC50 [2] [nM] | Ki [2] [nM]
1 | CCCC[C@H](NC(=O)[C@@H](NC(=O)[C@@H](NC(=O)c1ccccc1N)[C@@H](C)O)[C@@H](C)CC)C(=O)N[C@@H](Cc1ccc([N+](=O)[O-])cc1)C(=O)N[C@@H](CCC(N)=O)C(=O)N[C@@H](CCCNC(=N)N)C(N)=O [2-aminobenzoyl-Thr-Ile-Nle-Phe(pNO2)-Gln-Arg-NH2] (H-[2Abz]TI[Nle][Phe(4-NO2)]QR-NH2) | 4.5 | – | – | –
2 | CNCc1ccc(S(=O)(=O)N(CC(C)C)C[C@@H](O)[C@H](Cc2ccccc2)NC(=O)OC2CO[C@H]3OCCC23)cc1 (stereo partly shown) [Compound 119] | – | 57 to 62 | 3.5 | 1.1
3 | CC(C)CN(C[C@@H](O)[C@H](Cc1ccccc1)NC(=O)OC1CC2CCO[C@@H]2C1)S(=O)(=O)c1ccc(O)c(O)c1 (stereo partly shown) [Compound 88] | – | 80 to 82 | – | 1.2
4 | COCc1ccc(S(=O)(=O)N(CC(C)C)C[C@@H](O)[C@H](Cc2ccccc2)NC(=O)OC2CC3CCO[C@@H]3C2)cc1 (stereo partly shown) [Compound 130] | – | – | 0.8 | –
